Data set [1] concerns the target REV-ERBβ (Homo sapiens (Human), UniProt Q14995). The data set can be described thus: FRET assay for REV-ERB ligands (REV-ERBβ LBD / NCoR ID2 peptide interaction). The class given is biochemical. The following applies: TR-FRET, His-tagged REV-ERBβ LBD, fluorescein NCoR ID2 peptide; read-out: RevErbβ Inhibition IC50. On the procedure: (§1) Example A: FRET Assay for REV-ERB Ligands
(§2) The capacity for compounds to function as ligands for either REV-ERBα or REV-ERBβ was assessed using a fluorescent resonance energy transfer assay that detects the interaction between these receptors and the Nuclear Receptor Corepressor (NCoR) protein (the ID2 corepressor interaction domain peptides is used). This interaction is known to be ligand dependent and thus this assay that can detect an alteration of the affinity of these two proteins is able to detect ligands. The His-tagged ligand binding domain (LBD) of either REV-ERBα or REV-ERBβ and fluorescein labeled NCoR ID2 peptide (Life Technologies #PV4624) is used in these assays. The His-tagged LBDs were expressed in E. coli (amino acids 281-614 REV-ERBα and 381-579 REV-ERBβ) and labeled with a Terbium (Tb) labeled anti-His antibody (Life Technologies #PV5895). The assay buffer was PBS (phosphate buffered saline) with 5 mM DTT (dithiothreitol). The final concentration of various reagents in the assay are: REV-ERB LBD (either isoform) [5 nM], Fluorescein labeled NCoR ID2 peptide [250 nM], Tb labeled anti-his antibody [10 nM], dimethylsulfoxide [1%] and test compound [varying concentrations]. The assay was performed in Corning NBS black 384-well plates in a total volume of 20 μl. The assay plate was incubated for 1 hour at room temperature protected from light and then TR-FRET was assessed on a Biotek plate reader with the following excitation/emission pairs (340 nm/495 nm and 340 nm/520 nm. The 520 nm/495 nm emission signal ratio was used as an indicator of the degree of interaction between the LBD and NCoR peptide and EC50's were calculated using GraphPad Prizm software.
Background: Time-resolved FRET reads energy transfer from a long-lived donor to a nearby acceptor.

Data set [2] addresses REV-ERBα (Homo sapiens (Human), UniProt P20393). The data set can be described thus: FRET assay for REV-ERB ligands (REV-ERBα LBD / NCoR ID2 peptide interaction). Type of data set: biochemical. The settings on record: TR-FRET, His-tagged REV-ERBα LBD, fluorescein NCoR ID2 peptide; read-out: RevErbα Inhibition IC50. As for the experimental part: as §1, §2
Data set [3] can be described thus: Plasma pharmacokinetics after intraperitoneal injection in mice. The class given is in vivo. The following applies: mouse, 5 mg/kg IP; for Vd/F: read-out: Vz/F. On the procedure:
Example B: Pharmacokinetics of Selected Compounds
Mice were injected intraperitoneally with (5 mg/kg) of the compound of Example 71 or Example 78 and plasma samples were taken at intervals of […], 0.25 hr, 0.5 hr. 1.0 hr, 3.0 hr, and 6.0 hr post-administration in order to analyze the pharmacokinetic profile of these compounds. The mean plasma content for male and for female mice at these time points post-injection are shown for Example 71 in FIG. 1A and Table 3, and for Example 78, in FIG. 1B and Table 4.

In data set [4] the test system is senescence accelerated mouse P8 (SAMP8) mouse model. The following applies: SAMP8 mice, AD-like pathology; cited from earlier work.

As a reminder, the IC50 is the concentration that inhibits the measured activity by half. One may read the AUC(0-inf) as total exposure, with the tail of the curve extrapolated. Read a high AUC(0-inf) as more exposure. For orientation: AUC(0-t) means exposure summed from dosing to a finite time, without extrapolation to infinity. What is called CL/F is clearance divided by bioavailability, as obtained after extravascular dosing. Usually Cmax stands for the peak of the concentration-time curve. In general, Tmax refers to the time at which the peak concentration occurs. In general, half-life refers to the time needed for the level to fall by half in the phase considered.

Read-outs that look alike come from different tables or passages of the source.

Chain of REV-ERBβ (Q14995 381-579): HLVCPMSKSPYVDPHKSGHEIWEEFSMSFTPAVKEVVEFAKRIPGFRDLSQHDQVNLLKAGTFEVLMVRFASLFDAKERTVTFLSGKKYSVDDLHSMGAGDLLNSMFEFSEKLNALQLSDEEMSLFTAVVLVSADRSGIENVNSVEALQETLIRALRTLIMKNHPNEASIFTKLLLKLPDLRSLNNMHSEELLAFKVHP
Chain of REV-ERBα (P20393 281-614): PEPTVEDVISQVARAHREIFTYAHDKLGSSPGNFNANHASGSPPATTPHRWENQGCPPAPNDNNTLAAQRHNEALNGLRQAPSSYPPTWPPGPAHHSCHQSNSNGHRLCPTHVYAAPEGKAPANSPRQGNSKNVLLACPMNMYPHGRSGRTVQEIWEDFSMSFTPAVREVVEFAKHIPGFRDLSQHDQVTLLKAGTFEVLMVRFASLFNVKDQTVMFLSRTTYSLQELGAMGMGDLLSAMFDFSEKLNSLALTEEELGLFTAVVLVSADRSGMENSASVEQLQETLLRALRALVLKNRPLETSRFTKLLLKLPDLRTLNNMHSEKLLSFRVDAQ

Take `Cn1cnc2ccc(Oc3ccccc3-c3ccccc3)nc21` [Example 3, 5-([1,1′-biphenyl]-2-yloxy)-3-methyl-3H-imidazo[4,5-b]pyridine]: the values for the half-maximal inhibitory concentration (IC50) in data set [1] and in data set [2] were ≤ 250 nM and 250 to 1000 nM, respectively.
In the case of `Cc1cccc(-c2ccccc2Oc2ccc3ncn(C)c3n2)c1` [Example 4, 3-methyl-5-(3′-methylbiphenyl-2-yloxy)-3H-imidazo[4,5-b]pyridine], the IC50 in data set [1] was ≤ 250 nM.
As to `Cn1cnc2ccc(Oc3ccccc3-c3cccc(F)c3)nc21` [Example 5, 5-(3′-fluorobiphenyl-2-yloxy)-3-methyl-3H-imidazo[4,5-b]pyridine], the IC50 in data set [1] is 250 to 1000 nM; in data set [2] it was ≤ 250 nM.
`Cn1cnc2ccc(Oc3ccccc3-c3cccnc3)nc21` [Example 6, 3-methyl-5-(2-(pyridin-3-yl)phenoxy)-3H-imidazo[4,5-b]pyridine]: in data set [2], the IC50 is ≤ 250 nM.
For `Cn1ncc2cnc(Oc3ccccc3-c3cccnc3)nc21` [Example 10, 1-methyl-6-(2-(pyridin-3-yl)phenoxy)-1H-pyrazolo[3,4-d]pyrimidine], the half-maximal inhibitory concentration (IC50) in data set [1] and in data set [2] was ≤ 250 nM each time.
Consider `Cc1cccc(-c2ccccc2Oc2ccc3cnn(C)c3n2)c1` [Example 13, 1-methyl-6-(3′-methylbiphenyl-2-yloxy)-1H-pyrazolo[3,4-b]pyridine], for which, in data set [2], the half-maximal inhibitory concentration (IC50) was > 1000 nM.
Turning to `Cn1ncc2ccc(Oc3ccccc3-c3cccc(F)c3)nc21` [Example 14, 6-(3′-fluorobiphenyl-2-yloxy)-1-methyl-1H-pyrazolo[3,4-b]pyridine], the IC50 in data set [2] is 250 to 1000 nM.
On the same count and under the same terms, the value for `CNc1cccc(-c2ccccc2Oc2ncc3ccn(C)c3n2)c1` [Example 17, N-methyl-2′-(7-methyl-7H-pyrrolo[2,3-d]pyrimidin-2-yloxy)biphenyl-3-amine] was ≤ 250 nM; that for `Cc1nn(C)c2cnc(Oc3ccccc3-c3ccccc3)nc12` [Example 21, 5-([1,1′-biphenyl]-2-yloxy)-1,3-dimethyl-1H-pyrazolo[4,3-d]pyrimidine] was > 1000 nM; that for `c1ccc(-c2ccccc2Oc2ncc3cnccc3n2)cc1` [Example 22, 2-(biphenyl-2-yloxy)pyrido[4,3-d]pyrimidine] was ≤ 250 nM.
`c1ccc(-c2ccccc2Oc2ccc3cnccc3n2)cc1` [Example 24, 2-(biphenyl-2-yloxy)-1,6-naphthyridine]: the IC50 in data set [2] is ≤ 250 nM.
For the molecule `FC(F)(F)c1cc(Oc2ccccc2-c2ccccc2)nc2ccccc12` [Example 34, 2-([1,1′-biphenyl]-2-yloxy)-4-(trifluoromethyl)quinoline], in data set [1], the IC50 is > 1000 nM.
In the case of `COc1ccc2c(C(F)(F)F)cc(Oc3ccccc3-c3ccccn3)nc2c1` [Example 36, 7-methoxy-2-(2-(pyridin-2-yl)phenoxy)-4-(trifluoromethyl)quinoline], the IC50 in data set [2] was ≤ 250 nM.
Take `FC(F)(F)c1ccccc1Oc1ccc2ccncc2n1` [Example 44, 2-(2-(trifluoromethyl)phenoxy)-1,7-naphthyridine]: the 50% inhibitory concentration (IC50) in data set [1] was ≤ 250 nM.
With `c1ccc(-c2ccccc2Oc2ccc3cnccc3n2)nc1` [Example 45, 2-(2-(pyridin-2-yl)phenoxy)-1,6-naphthyridine], the results for the IC50 in data set [1] and in data set [2] were ≤ 250 nM and > 1000 nM, respectively.
Take `FC(F)(F)c1ccccc1Oc1ccc2cnccc2n1` [Example 46, 2-(2-(trifluoromethyl)phenoxy)-1,6-naphthyridine]: the IC50 in data set [1] was > 1000 nM; in data set [2] it was 250 to 1000 nM.
On to `c1ccc(C2CCCCC2)c(Oc2ccc3ccncc3n2)c1` [Example 48, 2-(2-cyclohexylphenoxy)-1,7-naphthyridine], for which the concentration for half-maximal inhibition (IC50) in data set [2] was ≤ 250 nM.
Consider `c1ccc(C2CCCCC2)c(Oc2ccc3cnccc3n2)c1` [Example 49, 2-(2-cyclohexylphenoxy)-1,6-naphthyridine], for which, in data set [2], the IC50 was 250 to 1000 nM.
For `c1ccc(-c2cccc(Oc3ccc4ccncc4n3)c2)cc1` [Example 51, 2-([1,1′-biphenyl]-3-yloxy)-1,7-naphthyridine], the IC50 in data set [1] was > 1000 nM.
Turning to `c1ccc2c(Oc3ccc4ccncc4n3)cccc2c1` [Example 54, 2-(naphthalen-1-yloxy)-1,7-naphthyridine], the IC50 in data set [2] is ≤ 250 nM.
For `c1ccc2c(Oc3ccc4cnccc4n3)cccc2c1` [Example 56, 2-(naphthalen-1-yloxy)-1,6-naphthyridine], the half-maximal inhibitory concentration (IC50) in data set [1] and in data set [2] was > 1000 nM each time.
Regarding `c1cc2ccc(OC3CCCCC3)nc2cn1` [Example 57, 2-(cyclohexyloxy)-1,7-naphthyridine], the half-inhibitory concentration (IC50) in data set [2] was > 1000 nM.
As to `c1ccc(-c2ccccc2Oc2ccc3ccncc3n2)cc1` [Example 59, 2-([1,1′-biphenyl]-2-yloxy)-1,7-naphthyridine], the 50% inhibitory concentration (IC50) in data set [1] and in data set [2] was ≤ 250 nM in each case.
For `COc1ccc2c(C(F)(F)F)cc(SCC(=O)NCCc3ccc(F)cc3)nc2c1` [Example 62, N-(4-fluorophenethyl)-2-((7-methoxy-4-(trifluoromethyl)quinolin-2-yl)thio)acetamide], in data set [2], the half-maximal inhibitory concentration (IC50) was ≤ 250 nM.
Take `c1ccc(-c2ccccc2Oc2ccc3ncccc3n2)cc1` [Example 68, 2-([1,1′-biphenyl]-2-yloxy)-1,5-naphthyridine]: the IC50 in data set [1] was > 1000 nM; in data set [2], 250 to 1000 nM.
Regarding `c1ccc2cc(Oc3ccc4ccncc4n3)ccc2c1` [Example 70, 2-(naphthalen-2-yloxy)-1,7-naphthyridine], the IC50 in data set [2] is ≤ 250 nM.
As for `Cc1cc(C)c(Oc2ccc3cnccc3n2)c(-c2ccccc2)c1` [Example 71, 2-((3,5-dimethyl-[1,1′-biphenyl]-2-yl)oxy)-1,6-naphthyridine], in data set [3] (female mice), the AUC(0-inf) amounted to 172 ng·h/mL, the exposure AUC(0-t) worked out at 169 ng·h/mL, the CL/F stood at 484 mL/min/kg and the peak concentration (Cmax) was 345 ng/mL. Further, in data set [3] (female mice), the Tmax stood at 4.98 min, the half-life was 31.2 min and the Vd/F turned out to be 21.9 L/kg. In data set [3] (male mice), this molecule gave a total exposure AUC(0-inf) of 225 ng·h/mL, an exposure AUC(0-t) of 222 ng·h/mL, a CL/F of 371 mL/min/kg and a Cmax of 317 ng/mL. In addition, in data set [3] (male mice), the Tmax came out at 4.98 min, the half-life was 28.2 min and the Vd/F was 15.2 L/kg.
Take `COc1ccc(-c2ccc(C(F)(F)F)cc2Oc2ccc3cnccc3n2)cc1` [Example 78, 2-((4′-methoxy-4-(trifluoromethyl)-[1,1′-biphenyl]-2-yl)oxy)-1,6-naphthyridine]: in data set [3] (Table 4, female mice), the AUC(0-t) was 137 ng·h/mL, the highest concentration (Cmax) stood at 269 ng/mL and the Tmax was found to be 15 min. Further, in data set [3] (Table 4, male mice), the AUC(0-t) was found to be 343 ng·h/mL, the apparent clearance CL/F amounted to 238 mL/min/kg, the peak level (Cmax) was 330 ng/mL and the Tmax came to 15 min. In data set [3] (Table 4, male mice), the half-life is 33 min and the Vd/F came out at 11.3 L/kg.
Consider `CCOC(=O)N1CCC(CN(Cc2ccc(Cl)cc2)Cc2ccc([N+](=O)[O-])s2)C1` (stereo not shown) [SR9009], for which, in data set [4], the “reversing the cognitive decline” value is reported as “effective in reversing the cognitive decline”.

These data come from patent publication US20240002380A1, “REV-ERB AGONISTS” (Saint Louis University, priority 2020, published 2024).
